Test results published in patent US10266549B2, “ULK1 inhibitors and methods using same” (SALK INSTITUTE FOR BIOLOGICAL STUDIES, priority 2014, dated 2019).

molecular target: ULK1 (Homo sapiens (Human), UniProt O75385); assay: ULK1 inhibition assay (Table 1); assay type: biochemical; conditions: * = tested as a mixture of regioisomers
Sequence (O75385 whole entry, species assumed): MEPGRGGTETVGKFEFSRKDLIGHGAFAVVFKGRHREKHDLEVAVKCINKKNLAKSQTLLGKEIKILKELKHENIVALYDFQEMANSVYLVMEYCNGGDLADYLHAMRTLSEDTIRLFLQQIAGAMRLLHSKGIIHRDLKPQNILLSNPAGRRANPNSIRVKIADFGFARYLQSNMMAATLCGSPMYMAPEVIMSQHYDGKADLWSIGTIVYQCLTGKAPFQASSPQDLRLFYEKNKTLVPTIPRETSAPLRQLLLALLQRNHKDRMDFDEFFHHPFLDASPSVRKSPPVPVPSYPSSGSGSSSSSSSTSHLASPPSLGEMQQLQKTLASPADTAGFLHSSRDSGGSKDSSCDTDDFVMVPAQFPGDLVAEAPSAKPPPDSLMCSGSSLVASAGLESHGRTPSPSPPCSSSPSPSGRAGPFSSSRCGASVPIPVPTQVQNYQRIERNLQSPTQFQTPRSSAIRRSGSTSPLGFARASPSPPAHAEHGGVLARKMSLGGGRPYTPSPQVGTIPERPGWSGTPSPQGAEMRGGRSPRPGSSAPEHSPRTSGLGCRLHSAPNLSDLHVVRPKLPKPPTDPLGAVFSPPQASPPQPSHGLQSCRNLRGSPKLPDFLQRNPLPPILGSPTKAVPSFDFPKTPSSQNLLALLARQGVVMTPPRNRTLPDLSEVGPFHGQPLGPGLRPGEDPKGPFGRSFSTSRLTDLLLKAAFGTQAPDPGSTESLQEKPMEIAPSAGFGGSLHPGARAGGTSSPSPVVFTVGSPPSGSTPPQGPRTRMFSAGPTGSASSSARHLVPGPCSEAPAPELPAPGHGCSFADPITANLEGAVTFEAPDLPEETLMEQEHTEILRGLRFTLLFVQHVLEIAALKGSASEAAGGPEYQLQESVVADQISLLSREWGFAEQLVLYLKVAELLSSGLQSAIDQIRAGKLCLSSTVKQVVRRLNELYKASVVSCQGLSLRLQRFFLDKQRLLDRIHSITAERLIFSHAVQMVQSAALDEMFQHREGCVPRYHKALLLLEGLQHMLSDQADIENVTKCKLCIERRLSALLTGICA

| Structure (SMILES) | IC50 |
| --- | --- |
| O=C1CCc2cc(Nc3ncc(Cl)c(Nc4ccc5c(c4)CCC(=O)N5)n3)ccc2N1 [compound 134, 6,6′-((5-chloropyrimidine-2,4-diyl)bis(azanediyl))bis(3,4-dihydroquinolin-2(1H)-one)] | < 200 nM |
| CNc1nc(Nc2cnc3[nH]ccc3c2)ncc1C(F)(F)F [182a, N4-methyl-N2-(1H-pyrrolo[2,3-b]pyridin-5-yl)-5-(trifluoromethyl)pyrimidine-2,4-diamine] | < 200 nM |
| O=C1CCc2cc(Nc3ncc(C(F)(F)F)c(Nc4ccccc4OC(F)F)n3)ccc2N1 [120a, 6-((4-((2-(difluoromethoxy)phenyl)amino)-5-(trifluoromethyl)pyrimidin-2-yl)amino)-3,4-dihydroquinolin-2(1H)-one] | < 200 nM |
| FC(F)(F)c1cnc(NC2CCC2)nc1NC1CCC1 [168c, N^2,N^4-dicyclobutyl-5-(trifluoromethyl) pyrimidine-2,4-diamine] | 200 to 2000 nM |
| FC(F)(F)c1cnc(NC2CC2)nc1Nc1ccc2c(c1)OCCO2 [158b, N^2-cyclopropyl-N^4-(2,3-dihydrobenzo[b][1,4]dioxin-6-yl)-5-(trifluoromethyl)pyrimidine-2,4-diamine] | < 200 nM |
| COc1cccc(Nc2nc(Nc3ccc4c(c3)OCCO4)ncc2C(F)(F)F)c1 [compound 133, N^2-(2,3-dihydrobenzo[b][1,4]dioxin-6-yl)-N^4-(3-methoxyphenyl)-5-(trifluoromethyl)pyrimidine-2,4-diamine] | < 200 nM |
| O=C1CCc2cc(Nc3ncc(C(F)(F)F)c(NC4Cc5ccccc5C4)n3)ccc2N1 [130a, 6-((4-((2,3-dihydro-1H-inden-2-yl)amino)-5-(trifluoromethyl)pyrimidin-2-yl)amino)-3,4-dihydroquinolin-2(1H)-one] | < 200 nM |
| Cc1ccc(Nc2nc(Nc3ccc4c(c3)CCC(=O)N4)ncc2C(F)(F)F)cc1C [compound 125, 6-((4-((3,4-dimethylphenyl)amino)-5-(trifluoromethyl)pyrimidin-2-yl)amino)-3,4-dihydroquinolin-2(1H)-one] | < 200 nM |
| COc1cc(N2CCOCC2)ccc1Nc1ncc(C(F)(F)F)c(Nc2ccccn2)n1 [compound 46, N^2-(2-Methoxy-4-morpholinophenyl)-N^4-(pyridin-2-yl)-5-(trifluoromethyl) pyrimidine-2,4-diamine] | 200 to 2000 nM |
| FC(F)(F)c1cnc(N2CCCC2)nc1Nc1ccc2c(c1)OCO2 [164a, N-(benzo[d][1,3]dioxol-5-yl)-2-(pyrrolidin-1-yl)-5-(trifluoromethyl)pyrimidin-4-amine] | > 2000 nM |
| FC(F)(F)c1cnc(Nc2cccc3ccccc23)nc1Nc1cccc2ccccc12 [126b, N^2,N^4-di(naphthalen-1-yl)-5-(trifluoromethyl) pyrimidine-2,4-diamine] | 200 to 2000 nM |
| CNC(=O)c1ccccc1Nc1nc(Nc2ccc(N3CCOCC3)cc2OC)ncc1Cl [compound 12, 2-(5-Chloro-2-(2-methoxy-4-morpholinophenylamino)pyrimidin-4-ylamino)-N-methylbenzamide] | < 200 nM |
| O=C1CCc2cc(Nc3nc(Nc4ccc5c(c4)OC(F)(F)O5)ncc3C(F)(F)F)ccc2N1 [178b, 6-((2-((2,2-difluorobenzo[d][1,3]dioxol-5-yl)amino)-5-(trifluoromethyl)pyrimidin-4-yl)amino)-3,4-dihydroquinolin-2(1H)-one] | < 200 nM |
| O=C1CCc2cc(Nc3ncc(C(F)(F)F)c(Nc4cccc(OCc5ccccc5)c4)n3)ccc2N1 [compound 121, 6-((4-((3-(benzyloxy)phenyl)amino)-5-(trifluoromethyl)pyrimidin-2-yl)amino)-3,4-dihydroquinolin-2(1H)-one] | 200 to 2000 nM |
| CNC(=O)c1ccccc1Nc1nc(Nc2cc(N3CCOCC3)cc(N3CCOCC3)c2)ncc1Cl [compound 78, 2-(5-Chloro-2-(3,5-dimorpholinophenylamino)pyrimidin-4-ylamino)-N-methylbenzamide] | 200 to 2000 nM |
| COc1cccc(Nc2nc(Nc3ccc4c(c3)CCC(=O)N4)ncc2C(F)(F)F)c1 [compound 119, 6-((4-((3-methoxyphenyl)amino)-5-(trifluoromethyl)pyrimidin-2-yl)amino)-3,4-dihydroquinolin-2(1H)-one] | < 200 nM |
| CNC(=O)c1ccccc1Nc1nc(Nc2ccc(N3CCOCC3)cc2OC)ncc1C(F)(F)F [compound 39, 2-(2-(2-Methoxy-4-morpholinophenylamino)-5-(trifluoromethyl)pyrimidin-4-ylamino)-N-methylbenzamide] | < 200 nM |
| COc1cc(N2CCOCC2)ccc1Nc1nc(Nc2ccc3c(c2)CCC(=O)N3)ncc1C(F)(F)F [123a, 6-((4-((2-methoxy-4-morpholinophenyl)amino)-5-(trifluoromethyl)pyrimidin-2-yl)amino)-3,4-dihydroquinolin-2(1H)-one] | < 200 nM |
| COc1ccc(Nc2nc(Nc3cc(OC)c(OC)c(OC)c3)ncc2Cl)cn1 [compound 24, 5-Chloro-N^4-(6-methoxypyridin-3-yl)-N^2-(3,4,5-trimethoxyphenyl)pyrimidine-2,4-diamine] | < 200 nM |
| COc1cc(Nc2ncc(Br)c(N(C)C(=O)c3ccccc3O)n2)cc(OC)c1OC [171b, N-(5-bromo-2-((3,4,5-trimethoxyphenyl)amino)pyrimidin-4-yl)-2-hydroxy-N-methylbenzamide] | < 200 nM |
| O=C1CCc2cc(Nc3ncc(C(F)(F)F)c(Nc4ccc5c(c4)CCC(=O)N5)n3)ccc2N1 [120c, 6,6′-((5-(trifluoromethyl)pyrimidine-2,4-diyl)bis(azanediyl))bis(3,4-dihydroquinolin-2(1H)-one)] | < 200 nM |
| COc1ccc(Nc2nc(Nc3ccc(N4CCOCC4)cc3OC)ncc2C(F)(F)F)cn1 [compound 40, N^2-(2-methoxy-4-morpholinophenyl)-N^4-(6-methoxypyridin-3-yl)-5-(trifluoromethyl)pyrimidine-2,4-diamine] | > 2000 nM |
| FC(F)(F)c1cnc(NC2CC2)nc1NC1CC1 [compound 169, N^2,N^4-dicyclopropyl-5-(trifluoromethyl)pyrimidine-2,4-diamine] | > 2000 nM |
| COc1ccc(C)c(Nc2ncc(Br)c(Nc3ccccn3)n2)c1 [compound 26, 5-Bromo-N^2-(5-methoxy-2-methylphenyl)-N^4-(pyridin-2-yl) pyrimidine-2,4-diamine] | 200 to 2000 nM |
| CNC(=O)c1ccccc1Oc1nc(Nc2ccc(C)cc2Cl)ncc1C(F)(F)F [compound 107, 2-((2-((2-chloro-4-methylphenyl)amino)-5-(trifluoromethyl)pyrimidin-4-yl)oxy)-N-methylbenzamide] | > 2000 nM |
| O=C1CCc2cc(Nc3ncc(C(F)(F)F)c(NC4CC4)n3)ccc2N1 [131a, 6-((4-(cyclopropylamino)-5-(trifluoromethyl)pyrimidin-2-yl)amino)-3,4-dihydroquinolin-2(1H)-one] | < 200 nM |
| COc1nc(Nc2cccc(C(F)(F)F)c2F)ncc1Br [compound 172, 5-bromo-N-(2-fluoro-3-(trifluoromethyl)phenyl)-4-methoxy pyrimidin-2-amine] | 200 to 2000 nM |
| O=C1CCc2cc(Nc3nc(NC4Cc5ccccc5C4)ncc3C(F)(F)F)ccc2N1 [130b, 6-((2-((2,3-dihydro-1H-inden-2-yl)amino)-5-(trifluoromethyl)pyrimidin-4-yl)amino)-3,4-dihydroquinolin-2(1H)-one] | > 2000 nM |
